Assay results: ChEMBL document CHEMBL1909046, “DrugMatrix in vitro pharmacology data”

How the values were obtained:
[1] = target: T1, Thromboxane-A synthase (Homo sapiens, UniProt P24557); assay: biochemical; format: tissue-based, Platelet; conditions: platelet;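 also: enzyme inhibition assay with PGH2 supplied as substrate; in other assays of this panel Not Active means under 50% inhibition at 10 µM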
T1 sequence (P24557 whole entry): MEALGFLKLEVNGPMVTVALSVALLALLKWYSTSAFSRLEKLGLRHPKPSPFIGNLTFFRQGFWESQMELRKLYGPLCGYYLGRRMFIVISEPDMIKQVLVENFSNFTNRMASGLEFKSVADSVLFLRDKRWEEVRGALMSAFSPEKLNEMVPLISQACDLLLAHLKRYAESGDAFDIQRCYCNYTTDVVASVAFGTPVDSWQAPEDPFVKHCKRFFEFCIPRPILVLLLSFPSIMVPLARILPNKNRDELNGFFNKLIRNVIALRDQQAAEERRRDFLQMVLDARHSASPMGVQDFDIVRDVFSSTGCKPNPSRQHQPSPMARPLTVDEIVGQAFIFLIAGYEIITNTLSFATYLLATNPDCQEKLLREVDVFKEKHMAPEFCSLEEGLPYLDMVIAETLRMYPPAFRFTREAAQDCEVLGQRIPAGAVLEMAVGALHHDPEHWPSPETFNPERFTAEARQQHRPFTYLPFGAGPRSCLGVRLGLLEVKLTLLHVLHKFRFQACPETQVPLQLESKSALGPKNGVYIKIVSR

[2] = target: T2, Vasoactive intestinal polypeptide receptor 1 (Homo sapiens, UniProt P32241); format: cell membranes, Membrane; conditions: ht-29; also: in other assays of this panel Not Active means under 50% inhibition at 10 µM
T2 sequence (P32241 whole entry): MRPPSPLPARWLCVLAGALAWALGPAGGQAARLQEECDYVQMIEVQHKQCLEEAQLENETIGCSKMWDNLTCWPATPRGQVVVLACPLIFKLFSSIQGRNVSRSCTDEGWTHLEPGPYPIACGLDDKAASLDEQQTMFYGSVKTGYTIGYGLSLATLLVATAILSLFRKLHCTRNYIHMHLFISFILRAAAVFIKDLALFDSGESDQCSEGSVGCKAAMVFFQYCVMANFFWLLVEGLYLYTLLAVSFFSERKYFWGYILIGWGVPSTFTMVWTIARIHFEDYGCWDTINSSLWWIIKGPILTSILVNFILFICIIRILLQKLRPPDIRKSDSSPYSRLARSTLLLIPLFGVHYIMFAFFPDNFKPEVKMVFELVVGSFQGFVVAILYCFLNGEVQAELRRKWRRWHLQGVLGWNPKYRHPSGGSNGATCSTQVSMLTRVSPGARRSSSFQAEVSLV

[3] = DRUGMATRIX: Platelet-Derived Growth Factor (PDGF) radioligand binding (ligand: [125I] PDGF); format: cell-based; conditions: nih3t3; Not Active = under 50% inhibition at 10 µM
[4] = target: T3, Alpha-1B adrenergic receptor (Rattus norvegicus, UniProt P15823); assay: DRUGMATRIX: Alpha-1B adrenergic receptor radioligand binding (ligand: prazosin); format: cell membranes, Wistar, Liver, Membrane; conditions: Not Active = under 50% inhibition at 10 µM
T3 sequence (P15823 whole entry): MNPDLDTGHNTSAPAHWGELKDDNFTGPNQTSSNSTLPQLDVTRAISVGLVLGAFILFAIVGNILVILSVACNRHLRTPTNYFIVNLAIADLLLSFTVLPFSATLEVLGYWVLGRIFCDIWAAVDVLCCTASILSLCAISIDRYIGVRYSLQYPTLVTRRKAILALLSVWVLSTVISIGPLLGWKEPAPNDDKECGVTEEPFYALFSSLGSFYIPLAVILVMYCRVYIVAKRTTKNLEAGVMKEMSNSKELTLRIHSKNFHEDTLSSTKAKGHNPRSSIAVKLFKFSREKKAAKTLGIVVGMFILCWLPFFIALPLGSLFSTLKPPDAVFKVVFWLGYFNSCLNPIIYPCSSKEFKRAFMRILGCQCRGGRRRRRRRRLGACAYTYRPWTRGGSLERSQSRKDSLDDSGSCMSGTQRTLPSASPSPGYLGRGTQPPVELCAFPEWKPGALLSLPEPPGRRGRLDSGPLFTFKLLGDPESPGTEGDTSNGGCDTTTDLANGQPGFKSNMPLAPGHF

[5] = target: T4, Amine oxidase [flavin-containing] A (Homo sapiens, UniProt P21397); assay: DRUGMATRIX: Monoamine Oxidase MAO-A enzyme inhibition (substrate: Kynuramine); parameters: species or system BTI-TN-5B1-4; conditions: bti-tn-5b1-4; Not Active = under 50% inhibition at 10 µM
T4 sequence (P21397 whole entry): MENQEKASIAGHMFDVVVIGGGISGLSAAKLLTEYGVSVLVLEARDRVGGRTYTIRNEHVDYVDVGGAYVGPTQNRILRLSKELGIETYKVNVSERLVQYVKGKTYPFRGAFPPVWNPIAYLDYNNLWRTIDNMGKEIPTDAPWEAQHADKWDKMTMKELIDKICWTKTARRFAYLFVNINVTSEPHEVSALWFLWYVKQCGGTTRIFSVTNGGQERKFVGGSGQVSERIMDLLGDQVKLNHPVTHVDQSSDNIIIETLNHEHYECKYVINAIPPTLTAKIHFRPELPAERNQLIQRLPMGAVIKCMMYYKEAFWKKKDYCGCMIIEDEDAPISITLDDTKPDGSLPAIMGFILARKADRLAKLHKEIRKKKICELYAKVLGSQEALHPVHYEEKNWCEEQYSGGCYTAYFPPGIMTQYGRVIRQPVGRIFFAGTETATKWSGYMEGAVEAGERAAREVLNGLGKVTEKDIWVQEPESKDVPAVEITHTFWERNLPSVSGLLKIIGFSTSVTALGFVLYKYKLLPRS

[6] = target: Estrogen receptor beta (Homo sapiens, UniProt Q92731); conditions: sf9; also: in other assays of this panel Not Active means under 50% inhibition at 10 µM
[7] = DRUGMATRIX: Potassium Channel [KATP] radioligand binding (ligand: [3H] Glyburide); format: cell membranes, Membrane; conditions: hit-t15; Not Active = under 50% inhibition at 10 µM

Chain of Estrogen receptor beta (Q92731 whole entry): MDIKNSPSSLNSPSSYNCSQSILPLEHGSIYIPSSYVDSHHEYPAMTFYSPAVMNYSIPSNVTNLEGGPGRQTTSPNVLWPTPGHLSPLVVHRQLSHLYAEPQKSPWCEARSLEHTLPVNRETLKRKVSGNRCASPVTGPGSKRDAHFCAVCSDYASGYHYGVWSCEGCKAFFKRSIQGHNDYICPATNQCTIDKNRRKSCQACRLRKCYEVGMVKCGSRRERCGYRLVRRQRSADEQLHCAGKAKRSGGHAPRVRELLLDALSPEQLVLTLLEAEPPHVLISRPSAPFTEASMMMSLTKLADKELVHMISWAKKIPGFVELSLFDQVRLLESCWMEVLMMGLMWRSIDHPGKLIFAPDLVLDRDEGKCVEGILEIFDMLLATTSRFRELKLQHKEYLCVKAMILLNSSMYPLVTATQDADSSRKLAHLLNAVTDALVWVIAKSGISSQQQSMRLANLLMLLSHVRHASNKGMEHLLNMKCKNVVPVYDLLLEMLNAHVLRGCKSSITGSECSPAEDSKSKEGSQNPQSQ

N#Cc1ccc(C(c2ccc(C#N)cc2)n2cncn2)cc1 [LETROZOLE]
Not Active: IC50 [1] | IC50 [2] | IC50 [3] | Ki [3] | IC50 [4] | IC50 [5] | IC50 [6] | IC50 [7] | Ki [7]

CCN1CCC[C@H]1CNC(=O)c1cc(S(N)(=O)=O)ccc1OC [LEVOSULPIRIDE]
Not Active: IC50 [1] | IC50 [2] | IC50 [3] | Ki [3] | IC50 [4] | IC50 [5] | IC50 [6] | IC50 [7] | Ki [7]

CCN(CC)CC(=O)Nc1c(C)cccc1C [LIDOCAINE]
Not Active: IC50 [1] | IC50 [2] | IC50 [3] | Ki [3] | IC50 [4] | IC50 [5] | IC50 [6] | IC50 [7] | Ki [7]

O=C1Nc2ccc(Cl)cc2C(c2ccccc2Cl)=NC1O (stereo unspecified) [LORAZEPAM]
Not Active: IC50 [1] | IC50 [2] | IC50 [3] | Ki [3] | IC50 [4] | IC50 [5] | IC50 [6] | IC50 [7] | Ki [7]

COc1c2occc2cc2ccc(=O)oc12 [METHOXSALEN]
Not Active: IC50 [1] | IC50 [2] | IC50 [3] | Ki [3] | IC50 [4] | IC50 [5] | IC50 [6] | IC50 [7] | Ki [7]

Nc1cc(N2CCCCC2)nc(N)[n+]1[O-] [MINOXIDIL]
Not Active: IC50 [1] | IC50 [2] | IC50 [3] | Ki [3] | IC50 [4] | IC50 [5] | IC50 [6] | IC50 [7] | Ki [7]

CO[C@H]1/C=C/O[C@@]2(C)Oc3c(C)c(O)c4c(O)c(c(/C=N/N5CCN(C6CCCC6)CC5)c(O)c4c3C2=O)NC(=O)/C(C)=C\C=C\[C@H](C)[C@H](O)[C@@H](C)[C@@H](O)[C@@H](C)[C@H](OC(C)=O)[C@@H]1C [RIFAPENTINE]
Not Active: IC50 [1] | IC50 [2] | IC50 [3] | Ki [3] | IC50 [4] | IC50 [5] | IC50 [6] | IC50 [7] | Ki [7]

CCCCOc1cc(CC2CNC(=O)N2)ccc1OC (stereo unspecified) [RO-201724]
Not Active: IC50 [1] | IC50 [2] | IC50 [3] | Ki [3] | IC50 [4] | IC50 [5] | IC50 [6] | IC50 [7] | Ki [7]

CC[C@@H](C(=O)[C@@H](C)[C@@H](O)[C@H](C)[C@@H]1O[C@@H]([C@@H](CC)C(=O)O)CC[C@@H]1C)[C@H]1O[C@]2(C=C[C@@H](O)[C@]3(CC[C@@](C)([C@H]4CC[C@](O)(CC)[C@H](C)O4)O3)O2)[C@H](C)C[C@@H]1C [SALINOMYCIN]
Not Active: IC50 [1] | IC50 [2] | IC50 [3] | Ki [3] | IC50 [4] | IC50 [5] | IC50 [6] | IC50 [7] | Ki [7]

CC(C)NCC(O)c1ccc(NS(C)(=O)=O)cc1 (stereo unspecified) [SOTALOL]
Not Active: IC50 [1] | IC50 [2] | IC50 [3] | Ki [3] | IC50 [4] | IC50 [5] | IC50 [6] | IC50 [7] | Ki [7]

NC(=O)N1C(=O)/C(=C(\O)c2cccs2)c2cc(Cl)ccc21 [TENIDAP]
Not Active: IC50 [1] | IC50 [2] | IC50 [3] | Ki [3] | IC50 [4] | IC50 [5] | IC50 [6] | IC50 [7] | Ki [7]

CN(C/C=C/C#CC(C)(C)C)Cc1cccc2ccccc12 [TERBINAFINE]
Not Active: IC50 [1] | IC50 [2] | IC50 [3] | Ki [3] | IC50 [4] | IC50 [5] | IC50 [6] | IC50 [7] | Ki [7]

CCN(CC)CCNC(=O)c1cc(S(C)(=O)=O)ccc1OC [TIAPRIDE]
Not Active: IC50 [1] | IC50 [2] | IC50 [3] | Ki [3] | IC50 [4] | IC50 [5] | IC50 [6] | IC50 [7] | Ki [7]

Clc1ccccc1CN1CCc2sccc2C1 [TICLOPIDINE]
Not Active: IC50 [1] | IC50 [2] | IC50 [3] | Ki [3] | IC50 [4] | IC50 [5] | IC50 [6] | IC50 [7] | Ki [7]

NC1CCN(c2nc3c(cc2F)c(=O)c(C(=O)O)cn3-c2ccc(F)cc2F)C1 (stereo unspecified) [TOSUFLOXACIN]
Not Active: IC50 [1] | IC50 [2] | IC50 [3] | Ki [3] | IC50 [4] | IC50 [5] | IC50 [6] | IC50 [7] | Ki [7]

O=C(Nc1ccc(Br)cc1)c1cc(Br)cc(Br)c1O [TRIBROMSALAN]
Not Active: IC50 [1] | IC50 [2] | IC50 [3] | Ki [3] | IC50 [4] | IC50 [5] | IC50 [6] | IC50 [7] | Ki [7]

CC(c1cc2ccccc2s1)N(O)C(N)=O (stereo unspecified) [ZILEUTON]
Not Active: IC50 [1] | IC50 [2] | IC50 [3] | Ki [3] | IC50 [4] | IC50 [5] | IC50 [6] | IC50 [7] | Ki [7]

MANGANESE CHLORIDE ANHYDROUS
Not Active: IC50 [1] | Ki [1] | IC50 [2] | Ki [2] | IC50 [3] | Ki [3] | IC50 [4] | Ki [4] | IC50 [5] | Ki [5] | IC50 [6] | Ki [6] | IC50 [7] | Ki [7]

SODIUM ORTHOVANAD
Not Active: IC50 [1] | Ki [1] | IC50 [2] | Ki [2] | IC50 [3] | Ki [3] | IC50 [4] | Ki [4] | IC50 [5] | Ki [5] | IC50 [6] | Ki [6] | IC50 [7] | Ki [7]
